Structures can show the parent of a compound that is named as a salt. Each block holds one molecule with its values, some of them ahead of it.
Legend:
Des1 (h) = biological target: T1, Des1 (h) (Homo sapiens, UniProt O15121); test: Measurement of Dihydroceramide Desaturase-1 (Des-1) activity in intact Jurkat cells labeled with DhCer-C6-NBD (HPLC); type: cell-based; details: for IC50: intact Jurkat cells, given as concentration range, or <X / >X if measured at one concentration X only, read-out: Des1 (h) Jurkat IC50; for inhibition at 1 µM: Jurkat cells
T1 construct: endogenous in cells; host or cells: parental Jurkat cells
T1 sequence (O15121 1-323): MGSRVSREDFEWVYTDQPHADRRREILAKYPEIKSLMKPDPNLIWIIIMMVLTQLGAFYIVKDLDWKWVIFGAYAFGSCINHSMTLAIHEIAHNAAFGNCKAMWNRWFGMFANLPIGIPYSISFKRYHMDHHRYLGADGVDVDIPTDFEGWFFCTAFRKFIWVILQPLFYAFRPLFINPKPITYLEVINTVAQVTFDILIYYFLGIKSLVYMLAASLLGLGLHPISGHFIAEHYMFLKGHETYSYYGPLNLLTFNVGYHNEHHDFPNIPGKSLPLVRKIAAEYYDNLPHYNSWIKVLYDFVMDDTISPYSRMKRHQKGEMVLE
Method in brief: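 Intact parental Jurkat cells in 0.5% serum medium were labelled with DhCer-C6-NBD; cells harvested at 500×g and ceramides extracted. NBD-labelled substrate and product resolved by C18 reverse-phase HPLC and quantified by fluorescence (ex 465/em 530 nm) as a measure of Des-1 activity.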

[1] = system: Connective Tissue Growth Factor (CTGF) gene expression; test: Real time quantitative PCR in TGFβ-stimulated human hepatic stellate cells (LX2) to detect CTGF gene expression; type: cell-based; details: CTGF mRNA in TGFβ-stimulated LX2 cells vs vehicle control; for inhibition at 5 µM: LX-2, 5 μM; for inhibition at 1 µM: LX-2, 1 μM; for inhibition at 10 µM: LX-2, 10 μM
Procedure: Real Time Quantitative Polymerase Chain Reaction in Human Hepatic Stellate Cells (LX2) to Detect Connective Tissue Growth Factor (CTGF) Gene Expression The hepatic stellate cell line, LX2 was maintained in DMEM (LifeTechnologies) with 2% heat-inactivated FBS, 100U penicillin (LifeTechnologies), 0.1 mg/mL streptomycin (LifeTechnologies), and 2 mM L-glutamine (LifeTechnologies) at 37° C. with 5% CO2. Cells were seeded into 6-well plates (200,000 cells per well, 2 mLs media) and grown overnight. The cells were changed to 2 mLs 0.5% FBS media for 24 hours prior to treatment. Treatments were added in 2 mLs fresh 0.5% FBS media (vehicle control, long/mL TGFβ alone (R&D Systems), 10 ng/mL TGFβ+inhibitors) and incubated for 24 hours. […] RNA was extracted using Qiagen RNeasy kit (cat #74104), according to manufacturer's instructions. RNA (1 μg) was used to generate cDNA using the Qiagen Quantitect Reverse Transcription Kit (cat #205311), and stored at -20° C. cDNA was diluted (1:25 final) and combined with Sybr Green (Qiagen cat #204143), forward and reverse primers (50 ng each) and run on Real Time PCR Thermocycler machine (RG-6000, Corbett) with the following PCR conditions: Hold 1: 50° C. for 2 min; Hold 2: 95° C. for 15 min; Cycling: 45 cycles of: 95° C. for 30 sec, 58° C. for 21 sec, 72° C. for 15 sec, Hold 3: 72° C. for 30 sec, Melt: 72° C. to 99° C. GAPDH primers (Forward: [NT]; Reverse: [NT] primers (Forward: [NT]; Reverse: [NT] primers available from Origene, cat #HP205671)].

SMILES: N/C(=N\O)c1nnc(Nc2ncc(-c3ccc(C(F)(F)F)cc3)o2)cc1O [Example 42, N′,4-Dihydroxy-6-((5-(4-(trifluoromethyl)phenyl)oxazol-2-yl)amino)pyridazine-3-carboximidamide]
IC50 (Des1 (h)): 1 to 10 nM
inhibition at 1 µM [1]: 10 to 20%
inhibition at 10 µM [1]: 40 to 50%

SMILES: O=C(NCC(O)CO)c1ccc(Nc2ncc(-c3ccc(Cl)cn3)o2)cn1 (racemic) [Compound 116, rac-5-((5-(5-Chloropyridin-2-yl)oxazol-2-yl)amino)-N-(2,3-dihydroxypropyl)picolinamide hydrochloride]
IC50 (Des1 (h)): < 1000 nM
inhibition at 5 µM [1]: 70 to 80%

SMILES: N/C(=N/O)c1cnc(Nc2ncc(-c3ccc(OC(F)(F)F)cc3)o2)cn1 [Example 70, N′-Hydroxy-5-((5-(4-(trifluoromethoxy)phenyl)oxazol-2-yl)amino)pyrazine-2-carboximidamide]
IC50 (Des1 (h)): < 1000 nM
inhibition at 5 µM [1]: > 90%

SMILES: N/C(=N\O)c1ccc(Nc2cc(-c3ccc(C(F)(F)F)cc3)no2)cn1 [Example 89, N′-hydroxy-5-((3-(4-(trifluoromethyl)phenyl)isoxazol-5-yl)amino)picolinimidamide]
IC50 (Des1 (h)): < 1000 nM
inhibition at 5 µM [1]: > 90%

SMILES: N/C(=N\O)c1ccc(Nc2ncn(-c3ccc(C(F)(F)F)cc3)n2)cn1 [Example 24, N′-Hydroxy-5-((1-(4-(trifluoromethyl)phenyl)-1H-1,2,4-triazol-3yl)amino)picolinimidamide]
IC50 (Des1 (h)): 10 to 100 nM
inhibition at 5 µM [1]: 50 to 60%

SMILES: N/C(=N\O)c1ccc(Nc2nc(-c3ccc(OC(F)(F)F)cc3)no2)cn1 [Example 86, N′-Hydroxy-5-((3-(4-(trifluoromethoxy)phenyl)-1,2,4-oxadiazol-5-yl)amino)picolinimidamide]
IC50 (Des1 (h)): < 1000 nM
inhibition at 5 µM [1]: > 90%

SMILES: N/C(=N\O)c1ccc(Nc2ncc(-c3ccc(OC(F)(F)F)cn3)o2)cn1 [Compound 99, N′-Hydroxy-5-((5-(5-(trifluoromethoxy)pyridin-2-yl)oxazol-2-yl)amino)picolinimidamide]
inhibition at 1 µM (Des1 (h)): 47%
IC50 (Des1 (h)): > 1000 nM
inhibition at 1 µM [1]: 1 to 10%
inhibition at 10 µM [1]: 70 to 80%

SMILES: N/C(=N\O)c1ccc(Nc2ncc(-c3ccc(Cl)cn3)o2)cn1 [Compound 90, 5-((5-(5-Chloropyridin-2-yl)oxazol-2-yl)amino)-N′-hydroxypicolinimidamide]
IC50 (Des1 (h)): < 1000 nM
inhibition at 5 µM [1]: > 90%

SMILES: N/C(=N\O)c1ccc(Nc2nc(-c3ccc(C(F)(F)F)cc3)no2)cn1 [Example 82, N′-hydroxy-5-((3-(4-(trifluoromethyl)phenyl)-1,2,4-oxadiazol-5-yl)amino)picolinimidamide]
IC50 (Des1 (h)): < 1000 nM
inhibition at 5 µM [1]: > 90%

SMILES: CN(O)C(=O)c1ccc(Nc2ncc(-c3ccc(C(F)(F)F)cc3)o2)cn1 [Example 20, N-Nydroxy-N-methyl-5-((5-(4-(trifluoromethyl)phenyl)oxazol-2-yl)amino)picolinamide]
IC50 (Des1 (h)): < 100 nM
inhibition at 1 µM [1]: 10 to 20%
inhibition at 10 µM [1]: 70 to 80%

SMILES: N/C(=N/O)c1cnc(Nc2ncc(-c3ccc(Cl)cn3)o2)cn1 [Compound 102, 5-((5-(5-Chloropyridin-2-yl)oxazol-2-yl)amino)-N′-hydroxypyrazine-2-carboximidamide]
IC50 (Des1 (h)): < 1000 nM
inhibition at 5 µM [1]: 70 to 80%

SMILES: N/C(=N/O)c1ccc(Nc2cnn(-c3ccc(Cl)cn3)c2)cn1 [Compound 103, 5-((1-(5-Chloropyridin-2-yl)-1H-pyrazol-4-yl)amino)-N′-hydroxypicolinimidamide]
IC50 (Des1 (h)): < 1000 nM
inhibition at 5 µM [1]: 70 to 80%

SMILES: N/C(=N\O)c1ccc(Nc2cnn(-c3ccc(C(F)(F)F)cc3)c2)cn1 [Compound 113, N′-Hydroxy-5-((1-(4-(trifluoromethyl)phenyl)-1H-pyrazol-4-yl)amino)picolinimidamide]
IC50 (Des1 (h)): < 1000 nM
inhibition at 5 µM [1]: > 90%

SMILES: N/C(=N\O)c1ccc(Nc2ncc(-c3ccc(OC(F)(F)F)cc3)o2)cn1 [Compound 118, N′-Hydroxy-5-((5-(4-(trifluoromethoxy)phenyl)oxazol-2-yl)amino)picolinimidamide]
IC50 (Des1 (h)): < 1000 nM
inhibition at 1 µM [1]: 50 to 60%
inhibition at 10 µM [1]: 70 to 80%

SMILES: Oc1cnc(Nc2ncc(-c3ccc(C(F)(F)F)cc3)o2)cc1O [Example 29, 6-((5-(4-(Trifluoromethyl)phenyl)oxazol-2-yl)amino)pyridine-3,4-diol]
IC50 (Des1 (h)): < 1000 nM
inhibition at 1 µM [1]: > 90%
inhibition at 10 µM [1]: > 90%

More lines, main results first:

IC50 (Des1 (h)): < 1000 nM
SMILES: N/C(=N\O)c1cnc(Nc2ncn(-c3ccc(C(F)(F)F)cn3)n2)cn1 [Compound 108, N′-Hydroxy-5-((1-(5-(trifluoromethyl)pyridin-2-yl)-1H-1,2,4-triazol-3-yl)amino)pyrazine-2-carboximidamide]
inhibition at 5 µM [1]: 40 to 50%

IC50 (Des1 (h)): < 1000 nM
SMILES: N/C(=N\O)c1cnc(Nc2ccn(-c3ccc(C(F)(F)F)cc3)n2)cn1 [Compound 111, N′-Hydroxy-5-((1-(4-(trifluoromethyl)phenyl)-1H-pyrazol-3-yl)amino)pyrazine-2-carboximidamide]
inhibition at 5 µM [1]: > 90%

IC50 (Des1 (h)): < 1000 nM
SMILES: N/C(=N\O)c1cnc(Nc2ncc(-c3ccc(C(F)(F)F)cn3)o2)cn1 [Example 57, N′-Hydroxy-5-((5-(5-(trifluoromethyl)pyridin-2-yl)oxazol-2-yl)amino)pyrazine-2-carboximidamide]
inhibition at 1 µM [1]: 1 to 10%
inhibition at 10 µM [1]: 50 to 60%

IC50 (Des1 (h)): < 1000 nM
SMILES: N/C(=N\O)c1ccc(Nc2ccn(-c3ccc(C(F)(F)F)cc3)n2)cn1 [Example 74, N′-Hydroxy-5-((1-(4-(trifluoromethyl)phenyl)-1H-pyrazol-3-yl)amino)picolinimidamide]
inhibition at 5 µM [1]: 80 to 90%

IC50 (Des1 (h)): < 1000 nM
SMILES: N/C(=N/O)c1ccc(Nc2cn(-c3ccc(C(F)(F)F)cn3)nn2)cn1 [Compound 115, N′-Hydroxy-5-((1-(5-(trifluoromethyl)pyridin-2-yl)-1H-1,2,3-triazol-4-yl)amino)picolinimidamide]
inhibition at 5 µM [1]: > 90%

IC50 (Des1 (h)): 100 to 1000 nM
SMILES: N/C(=N\O)c1cnc(Nc2ncc(-c3ccc(C(F)(F)F)cc3)o2)cn1 [Example 54, N′-Hydroxy-5-((5-(4-(trifluoromethyl)phenyl)oxazol-2-yl)amino)pyrazine-2-carboximidamide]
inhibition at 1 µM [1]: 70 to 80%
inhibition at 10 µM [1]: 80 to 90%

IC50 (Des1 (h)): < 1000 nM
SMILES: N/C(=N\O)c1ccc(Nc2cnn(-c3ccc(C(F)(F)F)cn3)c2)cn1 [Example 72, N′-Hydroxy-5-((1-(5-(trifluoromethyl)pyridin-2-yl)-1H-pyrazol-4-yl)amino)picolinimidamide]
inhibition at 1 µM [1]: 40 to 50%
inhibition at 5 µM [1]: 50 to 60%

IC50 (Des1 (h)): < 1000 nM
SMILES: N/C(=N/O)c1ccc(Nc2ncn(-c3ccc(C(F)(F)F)cn3)n2)cn1 [Compound 107, N′-Hydroxy-5-((1-(5-(trifluoromethyl)pyridin-2-yl)-1H-1,2,4-triazol-3-yl)amino)picolinimidamide]
inhibition at 5 µM [1]: > 90%

IC50 (Des1 (h)): < 1000 nM
SMILES: N/C(=N\O)c1cnc(Nc2ccn(-c3ccc(C(F)(F)F)cn3)n2)cn1 [Compound 112, N′-Hydroxy-5-((1-(5-(trifluoromethyl)pyridin-2-yl)-1H-pyrazol-3-yl)amino)pyrazine-2-carboximidamide]
inhibition at 1 µM [1]: > 90%

inhibition at 1 µM (Des1 (h)): 45%
IC50 (Des1 (h)): > 1000 nM
SMILES: N/C(=N\O)c1ccc(Nc2nc(-c3ccc(C(F)(F)F)cn3)no2)cn1 [Example 84, N′-Hydroxy-5-((3-(5-(trifluoromethyl)pyridin-2-yl)-1,2,4-oxadiazol-5-yl)amino)picolinimidamide]
inhibition at 5 µM [1]: 80 to 90%

IC50 (Des1 (h)): < 1000 nM
SMILES: N/C(=N\O)c1ccc(Nc2ccn(-c3ccc(C(F)(F)F)cn3)n2)cn1 [Example 73, N′-Hydroxy-5-((1-(5-(trifluoromethyl)pyridin-2-yl)-1H-pyrazol-3-yl)amino)picolinimidamide]
inhibition at 5 µM [1]: > 90%

IC50 (Des1 (h)): < 1000 nM
SMILES: N/C(=N\O)c1cnc(Nc2ncn(-c3ccc(C(F)(F)F)cc3)n2)cn1 [Compound 106, N′-Hydroxy-5-((1-(4-(trifluoromethyl)phenyl)-1H-1,2,4-triazol-3-yl)amino)pyrazine-2-carboximidamide]
inhibition at 1 µM [1]: 30 to 40%

From patent US12448371B2, “Inhibitor compounds” (Cincera Therapeutics Pty Ltd, priority 2019, dated 2025)
